Read-outs that look alike come from different tables or passages of the source.
Legend:
Chimeric Hxt11/2 [1] = system: T1, Chimeric Hxt11/2; assay: […] sugar uptake by yeast cells, filtration; type: cell-based, Saccharomyces cerevisiae; settings: labelled compound, mineral medium, strain DS68625
T1 construct: single-chain fusion: Hxt11 residues 1-54 replace Hxt2 residues 1-49, rest is Hxt2; untagged, pRS313-P7T7; expressed in S. cerevisiae DS68625 (hxt1-7, gal2 deleted)

Chimeric Hxt11/2 [2] = system: T1, Chimeric Hxt11/2; assay: […] sugar uptake by yeast cells, filtration; type: cell-based, Saccharomyces cerevisiae; settings: labelled compound; 0.5-500 mM xylose, 1 min uptake, mineral medium, strain DS68625; Hxt2 numbering; read-out: K m (mM) / Xylose

OC[C@H]1OC(O)[C@H](O)[C@@H](O)[C@@H]1O (stereo partly drawn) [D-glucose]
Km (Chimeric Hxt11/2 [1]; 0.1-500 mM glucose, 15 s uptake, read-out: K m (mM) / Glucose): 17.4 ± 3.8 mM

OC1OC[C@@H](O)[C@H](O)[C@H]1O (stereo partly drawn) [D-xylose]
Km (Chimeric Hxt11/2 [2]): 57.3 ± 5.2 mM | Km (Chimeric Hxt11/2 [1]; 0.5-500 mM xylose, 1 min uptake, read-out: K m (mM) / Xylose): 69 ± 9.1 mM

Source: paper PMC5575463, “The amino‐terminal tail of Hxt11 confers membrane stability to the Hxt2 sugar transporter and improves xylose fermentation in the presence of acetic acid” (Biotechnology and Bioengineering, 2017)
